Results from PMC8319832, “Fine-Tuning of Alkaline Residues on the Hydrophilic Face Provides a Non-toxic Cationic α-Helical Antimicrobial Peptide Against Antibiotic-Resistant ESKAPE Pathogens” (Frontiers in Microbiology, 2021).
Converted amounts (≈) assume the structure as drawn. Where a SMILES comes first, the peptide text is derived from it.

Experiments:
[1] = system: E. coli 2678; experiment: Drug sensitivity, Kirby-Bauer test; type: cell-based, Escherichia coli; set-up: key: 'S' represents susceptibility; 'I' represents intermediate efficacy; 'R' represents resistance; conditions: clinical isolate, ESBL
Experimental: (§1) The bacteria used in this study included the standard strains S. aureus ATCC29213 and ATCC25923, E. faecalis ATCC29212, E. coli ATCC25922 and ATCC35218, A. baumannii ATCC19606, K. pneumoniae ATCC700603 and P. aeruginosa ATCC27853, these strains were purchased from the China Center of Type Culture Collection (CCTCC). The antimicrobial activities of the peptides were also determined against clinically isolated strains S. aureus 4188, 9124, 1176, S. epidermidis 9092, 6943, 888, E. faecalis 901, E. faecium 898, E. coli 2678, 2687, K. pneumoniae 9126, P. aeruginosa 9014, 9042, and A. baumannii 906, 13012, 13079, 9068, these strains were acquired from Taihe Hospital, Hubei University of Medicine. The drug sensitivities of the clinical isolates to the antibiotics were determined by the Kirby-Bauer test ([Chinnambedu et al., 2020]).

[2] = system: E. coli 2687; experiment: Drug sensitivity, Kirby-Bauer test; type: cell-based, Escherichia coli; set-up: key: 'S' represents susceptibility; 'I' represents intermediate efficacy; 'R' represents resistance; conditions: clinical isolate, ESBL
Experimental: as §1

[3] = system: A. baumannii 9068; experiment: Drug sensitivity, Kirby-Bauer test; type: cell-based, Acinetobacter baumannii; set-up: key: 'S' represents susceptibility; 'I' represents intermediate efficacy; 'R' represents resistance; conditions: clinical isolate, CRE, MDR
Experimental: as §1

[4] = system: A. baumannii 906; experiment: Drug sensitivity, Kirby-Bauer test; type: cell-based, Acinetobacter baumannii; set-up: key: 'S' represents susceptibility; 'I' represents intermediate efficacy; 'R' represents resistance; conditions: clinical isolate, CRE, MDR
Experimental: as §1

[5] = system: A. baumannii 13012; experiment: Drug sensitivity, Kirby-Bauer test; type: cell-based, Acinetobacter baumannii; set-up: key: 'S' represents susceptibility; 'I' represents intermediate efficacy; 'R' represents resistance; conditions: clinical isolate, CRE, MDR
Experimental: as §1

[6] = system: A. baumannii 13079; experiment: Drug sensitivity, Kirby-Bauer test; type: cell-based, Acinetobacter baumannii; set-up: key: 'S' represents susceptibility; 'I' represents intermediate efficacy; 'R' represents resistance; conditions: clinical isolate, CRE, MDR
Experimental: as §1

[7] = system: P. aeruginosa 9042; experiment: Drug sensitivity, Kirby-Bauer test; type: cell-based, Pseudomonas aeruginosa; set-up: key: 'S' represents susceptibility; 'I' represents intermediate efficacy; 'R' represents resistance; conditions: clinical isolate
Experimental: as §1

[8] = system: P. aeruginosa 9014; experiment: Drug sensitivity, Kirby-Bauer test; type: cell-based, Pseudomonas aeruginosa; set-up: key: 'S' represents susceptibility; 'I' represents intermediate efficacy; 'R' represents resistance; conditions: clinical isolate, CRE, MDR
Experimental: as §1

[9] = system: K. pneumoniae 9126; experiment: Drug sensitivity, Kirby-Bauer test; type: cell-based, Klebsiella pneumoniae; set-up: key: 'S' represents susceptibility; 'I' represents intermediate efficacy; 'R' represents resistance; conditions: clinical isolate, CRE
Experimental: as §1

[10] = system: S. epidermidis 6943; experiment: Drug sensitivity, Kirby-Bauer test; type: cell-based; set-up: key: 'S' represents susceptibility; 'I' represents intermediate efficacy; 'R' represents resistance; conditions: clinical isolate, MRSE
Experimental: as §1

[11] = system: S. epidermidis 9092; experiment: Drug sensitivity, Kirby-Bauer test; type: cell-based; set-up: key: 'S' represents susceptibility; 'I' represents intermediate efficacy; 'R' represents resistance; conditions: clinical isolate, MRSE
Experimental: as §1

[12] = system: S. epidermidis 888; experiment: Drug sensitivity, Kirby-Bauer test; type: cell-based; set-up: key: 'S' represents susceptibility; 'I' represents intermediate efficacy; 'R' represents resistance; conditions: clinical isolate
Experimental: as §1

[13] = system: S. aureus 1176; experiment: Drug sensitivity, Kirby-Bauer test; type: cell-based, Staphylococcus aureus; set-up: key: 'S' represents susceptibility; 'I' represents intermediate efficacy; 'R' represents resistance; conditions: clinical isolate
Experimental: as §1

[14] = system: S. aureus 4188; experiment: Drug sensitivity, Kirby-Bauer test; type: cell-based, Staphylococcus aureus; set-up: key: 'S' represents susceptibility; 'I' represents intermediate efficacy; 'R' represents resistance; conditions: clinical isolate
Experimental: as §1

[15] = system: S. aureus 9124; experiment: Drug sensitivity, Kirby-Bauer test; type: cell-based, Staphylococcus aureus; set-up: key: 'S' represents susceptibility; 'I' represents intermediate efficacy; 'R' represents resistance; conditions: clinical isolate, MRSA
Experimental: as §1

[16] = system: human red blood cells (hRBCs); experiment: Hemolytic activity determination; type: cell-based; conditions: peptide 100 μg ml^–1; hRBCs in 0.9% sodium chloride, 37°C, 1 h, OD540, 1% Triton X-100 = 100%; three independent experiments
Experimental: Fresh human red blood cells (hRBCs) were collected in a sterile borosilicate glass tube covered with sodium citrate as the anticoagulating agent. […] Two-fold dilutions of the peptides were prepared in 0.9% sodium chloride to 100 μl and mixed with equal volumn of hRBC suspension to final peptide concentrations ranging from 12.5 to 200 μg ml^–1. After co-incubation at 37°C for 1 h, the samples were centrifuged (2,000 × g, 4°C, 20 min), and the supernatant (100 μl) was taken for optical density (OD540) measurements (Asample). The hRBCs assayed with 0.9% sodium chloride (Ablank) or 1% Triton X-100 (Apositive) were applied as 0% and 100% hemolysis, respectively. Three independent experiments were performed and the percent hemolysis was calculated according to the following equation ([Yin et al., 2012]; [Li et al., 2016]):
Hemolysis(%)=100*(Asample-Ablank)/(Apositive-Ablank)

[17] = system: S. aureus ATCC29213; experiment: MIC, broth dilution; type: cell-based, Staphylococcus aureus; conditions: CLSI broth dilution, MHB, 6.25 × 10^5 cfu per ml, 37°C, 20 h, OD630, at least three repeats
Experimental: All experiments were repeated at least three times.
To study the influence of physiological ions on the antimicrobial activities of the peptides, The MICs of the peptides were also determined against the standard bacterial strains cultured in MHB containing various salts at their physiological concentrations (150 mM NaCl, 4.5 mM KCl, 1 mM MgCl2, 2 mM CaCl2, 6 μM NH4HCO3, and 4 μM FeCl3) ([Ma et al., 2016]).

[18] = system: E. coli ATCC25922; experiment: MIC, broth dilution; type: cell-based, Escherichia coli; conditions: CLSI broth dilution, MHB, 6.25 × 10^5 cfu per ml, 37°C, 20 h, OD630, at least three repeats
[19] = system: E. faecium 898; experiment: Drug sensitivity, Kirby-Bauer test; type: cell-based, Enterococcus faecium; set-up: key: 'S' represents susceptibility; 'I' represents intermediate efficacy; 'R' represents resistance; conditions: clinical isolate
Experimental: as §1

Row | Compound | Drug sensitivity of the isolate to the antibiotic [1] | Drug sensitivity of the isolate to the antibiotic [2] | Drug sensitivity of the isolate to the antibiotic [3] | Drug sensitivity of the isolate to the antibiotic [4] | Drug sensitivity of the isolate to the antibiotic [5] | Drug sensitivity of the isolate to the antibiotic [6] | Drug sensitivity of the isolate to the antibiotic [7] | Drug sensitivity of the isolate to the antibiotic [8] | Drug sensitivity of the isolate to the antibiotic [9] | Drug sensitivity of the isolate to the antibiotic [10] | Drug sensitivity of the isolate to the antibiotic [11] | Drug sensitivity of the isolate to the antibiotic [12] | Drug sensitivity of the isolate to the antibiotic [13] | Drug sensitivity of the isolate to the antibiotic [14] | Drug sensitivity of the isolate to the antibiotic [15] | percent hRBC hemolysis [16] | MIC [17] | MIC [18] | Drug sensitivity of the isolate to the antibiotic [19]
1 | NCC[C@H](O)C(=O)N[C@@H]1C[C@H](N)[C@@H](O[C@H]2O[C@H](CN)[C@@H](O)[C@H](O)[C@H]2O)[C@H](O)[C@H]1O[C@H]1O[C@H](CO)[C@@H](O)[C@H](N)[C@H]1O [Amikacin] | S | S | R | R | R | R | S | S | S |  |  |  |  |  |  |  |  |  | 
2 | CC1(C)S[C@@H]2[C@H](NC(=O)[C@H](N)c3ccccc3)C(=O)N2[C@H]1C(=O)O [Ampicillin] | R | R |  |  |  |  | R | R | R |  |  |  |  |  |  |  |  |  | 
3 | CO[C@@]1(NC(=O)Cc2cccs2)C(=O)N2C(C(=O)O)=C(COC(N)=O)CS[C@@H]21 [Cefoxitin] |  |  |  |  |  |  |  |  |  | R | R | I | R | R | R |  |  |  | 
4 | CC(C)(O/N=C(\C(=O)N[C@@H]1C(=O)N2C(C(=O)[O-])=C(C[n+]3ccccc3)CS[C@H]12)c1csc(N)n1)C(=O)O [Ceftazidime] | S | R | R | R | R | R | S | R | R |  |  |  |  |  |  |  |  |  | 
5 | C[C@@H](O)[C@H]1C(=O)N2C(C(=O)O)=C(SCCN=CN)C[C@H]12 [Imipenem] | S | S | R | R | R | R | R | R | R |  |  |  |  |  |  |  |  |  | 
6 | CC[C@H](C)[C@H](NC(=O)[C@H](CCCNC(=N)N)NC(=O)[C@H](CCCNC(=N)N)NC(=O)[C@@H](NC(=O)[C@@H](N)Cc1ccccc1)[C@@H](C)CC)C(=O)N[C@@H](C)C(=O)N[C@@H](CCCNC(=N)N)C(=O)N[C@@H](CC(C)C)C(=O)N[C@@H](CC(C)C)C(=O)N[C@@H](CCCNC(=N)N)C(=O)N[C@@H](CCCCN)C(=O)N[C@H](C(=O)N[C@@H](Cc1ccccc1)C(N)=O)[C@@H](C)CC [Kn2-7(K3R)] (H-FIRRIARLLRKIF-NH2) |  |  |  |  |  |  |  |  |  |  |  |  |  |  |  | 89.3% | 5 µg/mL (≈ 2.94 µM) | 20 µg/mL (≈ 11.8 µM) | 
7 | C[C@H]1COc2c(N3CCN(C)CC3)c(F)cc3c(=O)c(C(=O)O)cn1c23 [Levofloxacin] | R | R | R | R | R | R | R | R | S | I | R | R | S | S | S |  |  |  | R
8 | C[C@@H](O)[C@H]1C(=O)N2C(C(=O)O)=C(S[C@@H]3CN[C@H](C(=O)N(C)C)C3)[C@H](C)[C@H]12 [Meropenem] | S | S | R | R | R | R | R | I | S |  |  |  |  |  |  |  |  |  | 
9 | Cc1onc(-c2ccccc2)c1C(=O)N[C@@H]1C(=O)N2[C@@H]1SC(C)(C)[C@@H]2C(=O)O [Oxazocilline] |  |  |  |  |  |  |  |  |  | R | R | S | S | S | R |  |  |  | 
10 | CN(C)[C@@H]1C(O)=C(C(N)=O)C(=O)[C@@]2(O)C(O)=C3C(=O)c4c(O)cccc4[C@@](C)(O)[C@H]3C[C@@H]12 [Tetracycline] |  |  |  |  |  |  |  |  |  | S | R | R | S | S | R |  |  |  | R
11 | Piperacillin/tazobactam | S | S | R | R | R | R | S | R | S |  |  |  |  |  |  |  |  |  | 
12 | Ticarcillin/clavulanic acid | S |  | R | R | R | R | R | R | S |  |  |  |  |  |  |  |  |  | 
